Assay results reported in patent US8802638B1, “Flavonoid treatment of glycogen synthase kinase-based disease” (University of South Florida, priority 2007, dated 2014).

Biological target: GSK-3α/β (Mus musculus, UniProt Q2NL51)
Experiment: Western blot of phosphorylated GSK-3α/β forms in Tg2576-derived neuronal cells
Format: cell-based, mice
Set-up: endogenous in cells; host or cells: primary neuronal cells derived from Tg2576 mice
Settings: 20 μM
Protocol: Cultured cells or mouse brain were lysed in ice-cold lysis buffer described above, and an aliquot corresponding to 50 μg of total protein was electrophoretically separated using 12% Tris-HCl or 16.5% Tris-tricine gels. Electrophoresed proteins were then transferred to PVDF membranes, washed in dH2O, and blocked for 1 hr at ambient temperature in Tris-buffered saline (TBS; Bio-Rad) containing 5% (w/v) non-fat dry milk. After blocking, membranes were hybridized for 1 hr at ambient temperature with various primary antibodies. Membranes were then washed 3× for 5 min each in dH2O and incubated for 1 hr at ambient temperature with the appropriate HRP-conjugated secondary antibody (1:1,000). […] Densitometric analysis was done as previously described using a FluorS Multiimager with Quantity One™ software (39). […] Antibodies used for Western blot included the APP-carboxyl-terminal antibody (1:50)), amino-terminal APP antibody (clone 22C11), or 6E10 (1:1,000), or actin antibody (1:1,500; as an internal reference control). γ-secretase activity was quantified in cell lysates using available kits based on secretase-specific peptides conjugated to fluorogenic reporter molecules. […]

Sequence of GSK-3α/β (Q2NL51 2-490): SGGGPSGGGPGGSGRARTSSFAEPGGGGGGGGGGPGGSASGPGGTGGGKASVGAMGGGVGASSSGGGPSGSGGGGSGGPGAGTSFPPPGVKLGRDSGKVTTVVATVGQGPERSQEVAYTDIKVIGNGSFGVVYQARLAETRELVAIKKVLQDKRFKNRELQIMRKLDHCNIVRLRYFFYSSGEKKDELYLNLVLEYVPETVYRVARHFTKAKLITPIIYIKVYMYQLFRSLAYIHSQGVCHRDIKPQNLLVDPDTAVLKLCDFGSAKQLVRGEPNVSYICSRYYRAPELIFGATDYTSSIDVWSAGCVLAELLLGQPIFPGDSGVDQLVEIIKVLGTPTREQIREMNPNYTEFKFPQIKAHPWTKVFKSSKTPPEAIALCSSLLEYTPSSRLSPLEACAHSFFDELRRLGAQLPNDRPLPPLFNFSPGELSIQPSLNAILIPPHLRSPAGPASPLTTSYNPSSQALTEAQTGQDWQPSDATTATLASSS

levels of serine 21-phosphorylated, inactive GSK-3α isoforms: increased the levels
SMILES: O=c1cc(-c2ccc(O)c(O)c2)oc2cc(O)cc(O)c12 [luteolin]
